Values quoted from earlier work, collected in patent US20140128469A1, “[…]-BUTYL BUMETANIDE” (CONCERT PHARMACEUTICALS INC., priority 2011, published 2014).

Columns and labels:
[1] = system: models of neuropathic and nociceptive pain; details: in vivo
models of migraine = details: in vivo
[2] = preclinical toxicology studies, see WO 2010/085352
[3] = preclinical models
[4] = biological target: T1, Na+K+2Cl— co-transporter (NKCC2) (Homo sapiens, UniProt Q13621)
T1 sequence (Q13621 1-1099): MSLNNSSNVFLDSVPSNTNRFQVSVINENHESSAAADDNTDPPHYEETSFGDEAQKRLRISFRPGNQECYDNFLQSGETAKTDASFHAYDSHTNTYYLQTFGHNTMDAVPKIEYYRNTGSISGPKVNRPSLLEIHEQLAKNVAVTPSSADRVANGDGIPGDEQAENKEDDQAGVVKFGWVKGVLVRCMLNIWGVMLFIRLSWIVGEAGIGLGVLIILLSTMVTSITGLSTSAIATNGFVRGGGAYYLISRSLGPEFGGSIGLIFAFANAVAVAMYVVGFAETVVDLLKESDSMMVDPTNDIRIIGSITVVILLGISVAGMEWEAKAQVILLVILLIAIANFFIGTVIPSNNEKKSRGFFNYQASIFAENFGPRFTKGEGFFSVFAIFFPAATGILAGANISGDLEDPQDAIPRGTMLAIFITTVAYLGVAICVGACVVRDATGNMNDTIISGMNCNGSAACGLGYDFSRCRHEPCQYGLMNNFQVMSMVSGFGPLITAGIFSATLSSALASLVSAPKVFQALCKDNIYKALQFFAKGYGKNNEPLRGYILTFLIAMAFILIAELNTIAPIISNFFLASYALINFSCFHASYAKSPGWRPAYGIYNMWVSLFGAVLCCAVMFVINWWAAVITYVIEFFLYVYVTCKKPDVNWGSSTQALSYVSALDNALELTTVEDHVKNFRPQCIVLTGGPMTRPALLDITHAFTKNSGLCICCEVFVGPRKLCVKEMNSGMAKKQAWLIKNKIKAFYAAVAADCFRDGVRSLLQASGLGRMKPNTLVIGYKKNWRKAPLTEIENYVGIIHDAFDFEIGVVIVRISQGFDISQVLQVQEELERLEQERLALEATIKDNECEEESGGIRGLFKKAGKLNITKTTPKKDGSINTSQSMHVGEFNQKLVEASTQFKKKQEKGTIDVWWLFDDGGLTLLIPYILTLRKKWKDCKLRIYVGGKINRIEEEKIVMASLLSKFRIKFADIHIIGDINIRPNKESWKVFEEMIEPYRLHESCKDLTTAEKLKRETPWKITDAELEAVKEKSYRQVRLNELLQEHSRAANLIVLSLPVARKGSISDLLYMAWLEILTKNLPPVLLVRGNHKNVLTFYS

[5] = biological target: T2, Na+K+2Cl— co-transporter (NKCC1) (Homo sapiens, UniProt P55011)
T2 sequence (P55011 1-1212): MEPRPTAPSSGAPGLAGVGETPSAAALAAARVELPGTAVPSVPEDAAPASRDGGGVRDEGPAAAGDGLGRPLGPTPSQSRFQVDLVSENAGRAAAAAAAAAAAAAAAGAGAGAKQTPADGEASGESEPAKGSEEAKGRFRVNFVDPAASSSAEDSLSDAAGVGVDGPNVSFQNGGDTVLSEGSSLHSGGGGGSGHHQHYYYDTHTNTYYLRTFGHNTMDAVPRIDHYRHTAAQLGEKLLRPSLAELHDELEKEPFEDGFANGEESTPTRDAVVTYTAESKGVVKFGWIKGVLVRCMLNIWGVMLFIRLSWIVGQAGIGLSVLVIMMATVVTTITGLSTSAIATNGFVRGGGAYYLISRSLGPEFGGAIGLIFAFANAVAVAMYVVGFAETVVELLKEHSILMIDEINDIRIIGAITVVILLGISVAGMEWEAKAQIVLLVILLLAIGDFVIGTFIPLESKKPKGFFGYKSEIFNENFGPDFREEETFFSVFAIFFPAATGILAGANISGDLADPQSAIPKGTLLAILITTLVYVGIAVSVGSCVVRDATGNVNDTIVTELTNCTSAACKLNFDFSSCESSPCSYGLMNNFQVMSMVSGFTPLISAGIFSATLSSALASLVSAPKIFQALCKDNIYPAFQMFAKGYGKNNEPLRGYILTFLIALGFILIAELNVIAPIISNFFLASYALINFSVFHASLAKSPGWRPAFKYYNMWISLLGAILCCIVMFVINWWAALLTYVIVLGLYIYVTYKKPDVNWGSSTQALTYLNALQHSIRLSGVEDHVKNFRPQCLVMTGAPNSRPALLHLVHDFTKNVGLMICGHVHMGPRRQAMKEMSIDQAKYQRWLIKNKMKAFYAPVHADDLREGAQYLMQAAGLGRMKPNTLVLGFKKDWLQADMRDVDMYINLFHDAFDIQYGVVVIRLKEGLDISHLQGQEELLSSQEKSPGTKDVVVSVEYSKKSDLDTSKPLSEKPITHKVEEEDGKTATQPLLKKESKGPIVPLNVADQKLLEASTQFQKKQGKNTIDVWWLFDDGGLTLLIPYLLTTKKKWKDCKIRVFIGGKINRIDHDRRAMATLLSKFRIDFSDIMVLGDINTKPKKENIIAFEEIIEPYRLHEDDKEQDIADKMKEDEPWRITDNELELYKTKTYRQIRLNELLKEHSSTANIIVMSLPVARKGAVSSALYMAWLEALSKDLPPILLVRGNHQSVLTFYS

Compound: CCCCN(CCCC)c1cc(C(=O)O)cc(S(N)(=O)=O)c1Oc1ccccc1 [N-butyl bumetanide]
- efficacy in models of neuropathic and nociceptive pain [1]: effective
- efficacy in models of migraine (models of migraine): effective
- therapeutic safety margin [2]: large therapeutic safety margin
- diuresis [3]: does not cause diuresis
- action on NKCC2 [4]: does not act on
- GABAA modulation (GABAA): subtype-selective GABAA modulatory actions
- amelioration of seizures (models of epilepsy; epilepsy models resistant to currently-marketed anti-epileptic drugs): effective in ameliorating seizures
- efficacy in models of epilepsy (models of epilepsy; in vivo): effective
- action on NKCC1 [5]: does not act on
